Experimental data from patent US20030216569A1, “Method of making HIV protease inhibitors” (priority 1993, published 2003).
Read-outs that look alike come from different tables or passages of the source. Marks after values point to notes of the source that are not given here.

Target: HIV-1 protease (Human immunodeficiency virus type 1 group M subtype B, UniProt P04585)
Assay: Fluorescence HIV-1 Protease Inhibitor Assay (Pandex)
Assay type: biochemical
Set-up: made in house; host or cells: E. coli K12 L507/pHP10D (NRRL B-18560)
Experimental: A. Preparation of Protease and Gag Fractions
Lyophils of E. coli K12 L507/pHP10D were obtained from the Northern Regional Research Laboratory, Peoria, Ill. 61604, under the accession number NRRL B-18560 (deposited Nov. 14, 1989). The lyophils were decanted into tubes containing 10 ml LB medium (10 g Bacto-tryptone, 5 g Bacto-yeast extract, and 10 g aqueous sodium chloride per liter; the pH was adjusted to 7.5 and incubated at 32° C. overnight).
A small portion of the overnight culture was placed on LB-agar (LB medium with 15 g/L Bacto-agar) plates containing 12.5 micrograms/ml tetracycline in a manner so as to obtain a single colony isolate of E. coli K12 L507/pHP10D. The single colony obtained was inoculated into 10 ml of LB medium containing 12.5 micrograms/ml tetracycline and incubated overnight at 32° C. with vigorous shaking. The 10 ml overnight culture was inoculated into LB medium containing 12.5 micrograms/ml tetracycline and incubated at 32° C. with vigorous shaking until the culture reached mid-log phase. […]
3. Preparation of Protease Fraction
A culture of E. coli K12 L507/pHP10D was grown to mid-log phase at 32° C. in LB media containing 12.5 micrograms/ml tetracycline. The cultivation temperature was quickly elevated to 40° C. to induce gene expression, and the cells were allowed to grow for 2.5 hours at this temperature before the culture was quickly chilled on ice. The cells were centrifuged and the cell pellet was resuspended in 20 ml of 50 mmol MES buffer (pH 6.0) containing 1 mmol EDTA, 1 mmol DTT, 1 mmol PMSF and 10% glycerol (“Buffer A”). Cells were lysed by sonication using a Fischer Model 300 Dismembrator and a microtip probe. Following centrifugation at 27,000×g, the supernatant was diluted to a total volume of 60 ml with Buffer A and loaded onto a 2.0×19 cm QAE-Sepharose column (1 ml/min, 4° C.), that had been equilibrated in Buffer A. The column was washed isocratically for 180 min and then eluted with a gradient eluent of […] aqueous sodium chloride in Buffer A over 120 min. Enzymatic activity was measured by HPLC using the synthetic peptide Ser-Gln-Asn-Tyr-Pro-Ile-Val as described in Margolin et al., Biochem. Biophys. Res. Commun., 167, 554-560 (1990); the production of the p1 peptide (Ser-Gln-Asn-Tyr) was measured.
The active fractions were combined, adjusted to […] 1.2M in ammonium sulfate, and applied to a 2.0×18 cm hexyl agarose column that had been equilibrated in Buffer A containing 1.2M ammonium sulfate. The sample was loaded at a flow rate of 1 ml/min at 4° C., washed with the equilibration buffer for 240 min (1 ml/min) and then eluted using a reverse linear gradient of 1.2-0M ammonium sulfate in Buffer A for 120 min at the same flow rate. The column was then washed isocratically in Buffer A for 120 min.
The active fractions were combined, concentrated to 10 ml using an Amicon stirred cell with a YM-10 membrane and then applied to a MonoS cation exchange column (1.0×10 cm) that had been equilibrated in Buffer A. The sample was loaded at a flow rate of 1 ml/min at 25° C. After washing isocratically for 30 min, the protease was eluted using a linear gradient of 0-0.45M aqueous sodium chloride in Buffer A over 40 min. The column was washed isocratically in Buffer A containing 0.45M aqueous sodium chloride for 30 minutes.
The active fractions were combined and concentrated to 200 microliters using an Amicon stirred cell and a YM-10 membrane and then the protease was applied to a Superose 6 size exclusion column equilibrated in Buffer A containing 0.1M aqueous sodium chloride.

[1] = normalized to positive control (=1.0), * = a calculated average
[2] = value as run, 35B value of the same run in footnote or parentheses
[3] = normalized to positive control (=1.0), * = a calculated average, read-out: Fluorescence Assay IC50 in ng/mL (converted)
[4] = value as run, 35B value of the same run in footnote or parentheses, read-out: Pandex IC50 ng/ml (converted)

## [3S-(3R*,4aR*,8aR*,2′S*,3′S*)]-2-[2′-Hydroxy-3′-phenylthiomethyl-4′-aza-5′-oxo-5′-[6″-methyl-(1″,2″,3″,4″-tetrahydroquinolin-5″-yl)]pentyl] decahydroisoquinoline-3-N-t-butylcarboxamide [Example 38]
[1]
  Fluorescence Assay IC50: 0.0152 µg/mL
[2]
  Pandex IC50 ng/ml: 35^e ng/ml

## CC(C)(C)NC(=O)[C@@H]1C[C@@H]2CCCC[C@@H]2CN1C[C@@H](O)[C@H](Cc1ccccc1)NC(=O)C1CCS(=O)(=O)C1 (relative stereo) [Example 88, [3S-(3R*, 4aR*, 8aR*, 2′S*, 3′R*)]-2-[2′-Hydroxy-3′-phenylmethyl-4′-aza-5′-oxo-5′-(tetrahydrothieno-3″-yl-1″,1″-dioxide)pentyl]-decahydroisoquinoline-3-N-t-butyl carboxamide]
At 20 ng/ml
  Pandex % at 20 ng/ml: 28%

## Cc1c(O)cccc1C(=O)N[C@@H](Cc1ccccc1)[C@H](O)CN1CCC[C@H]1C(=O)NC(C)(C)C (relative stereo) [Example 4, [2S-(2R*,2′S*,3′R*)]-1-[2′-Hydroxy-3′-phenylmethyl-4′-aza-5′-oxo-5′-(2″-methyl-3″-hydroxyphenyl)pentyl] pyrrolidine-2-N-t-butylcarboxamide]
[1]
  Fluorescence Assay IC50 in ng/mL: 1425* ng/mL

## CC(C)(C)NC(=O)[C@@H]1C[C@@H]2CCCC[C@@H]2CN1C[C@@H](O)[C@H](CSc1ccccc1)NC(=O)[C@H]1CS(=O)(=O)CN1 (relative stereo) [[3S-(3R*, 4aR*, 8aR*, 2′S*, 3′S*, 4″S)]-2-[2′-Hydroxy-3′-phenylthiomethyl-4′-aza-5′-oxo-5′-(thiazolino-4″-yl-1″,1″-dioxide)pentyl]-decahydroisoquinoline-3-N-t-butyl carboxamide]
[2]
  Pandex IC50: 0.244 µg/mL

## CC(C)(C)NC(=O)c1ccccc1C[C@@H](O)[C@H](CSc1ccc2ccccc2c1)NC(=O)c1cccc2cnccc12 (relative stereo) [Example 57, [2′R-(2′R*,3′S*)]-N-t-Butyl-2-[2′-hydroxy-3′-naphth-2-ylthiomethyl-4′-aza-5′-oxo-5′-(isoquinolin-5″-yl)pentyl] benzamide]
[3]
  IC50: 1380 nM

## [2′R-(2′R*,3′S*)]-N-t-Butyl-2-[2′-hydroxy-3′-naphth-2-ylthiomethyl-4′-aza-5′-oxo-5′-(1″-N(methyl)indol-4″-yl)pentyl] benzamide [Example 69]
Concentration of the inhibitor not increased above 15 μg/mL
  Fluorescence Assay IC35: IC35(15000)** ng/mL

## CC(C)(C)NC(=O)c1ccccc1C[C@@H](O)[C@@H](CSc1ccc2ccccc2c1)NC(=O)c1cccc(O)c1 (relative stereo) [Example 51, [2′R-(2′R*,3′S*)]-N-t-Butyl-2-[2′-hydroxy-3′-naphth-2-ylthiomethyl-4′-aza-5′-oxo-5′-(3″-hydroxyphenyl)pentyl] benzamide]
[1]
  Fluorescence Assay IC50: 0.5 µg/mL

## CC(C)(C)NC(=O)c1ccccc1C[C@@H](O)[C@H](CSc1ccc2ccccc2c1)NC(=O)c1cccc2c1CCNC2 (relative stereo) [Example 58, [2′R-(2′R*,3′S*)]-N-t-Butyl-2-[2′-hydroxy-3′-naphth-2-ylthiomethyl-4′-aza-5′-oxo-5′-(1″,2″,3″,4″-tetrahydroisoquinolin-5″-yl)pentyl] benzamide]
[3]
  IC50: 309 nM

## Cc1c(O)cccc1C(=O)N[C@@H](Cc1ccccc1)[C@H](O)CN1CCCC[C@H]1C(=O)NC(C)(C)C (relative stereo) [Example 6, [2S-(2R*,2′S*,3′R*)]-1-[2′-Hydroxy-3′-phenylmethyl-4′-aza-5′-oxo-5′-(2″methyl-3″-hydroxyphenyl)pentyl]piperidine-2-N-t-butylcarboxamide]
[1]
  Fluorescence Assay IC50 in ng/mL: 513* ng/mL

## COc1cccc(C(=O)NC(Cc2ccccc2)C(O)CN2CC3CCCCC3CC2C(=O)NC(C)(C)C)c1C (stereo not drawn) [Example 13, [3S-(3R*,4aR*,8aR*,2′S*,3′R*)]-2-[2′-Hydroxy-3′-phenylmethyl-4′-aza-5′-oxo-5′-(2″-methyl-3″-methoxyphenyl)pentyl] decahydroisoquinoline-3-N-t-butylcarboxamide]
[3]
  IC50: 629 nM

## CC(C)(C)NC(=O)c1ccccc1C[C@@H](O)[C@H](Cc1ccccc1)NC(=O)c1cccc2c1CCNC2 [Example 60, [2′R-(2′R*,3′S*)]-N-t-Butyl-2-[2′-hydroxy-3′-phenylmethyl-4′-aza-5′-oxo-5′-(1″,2″,3″,4″-tetrahydroisoquinolin-5″-yl)pentyl] benzamide]
[3]
  IC50: 801 nM

## CC(C)(C)NC(=O)c1ccccc1C[C@@H](O)[C@H](CSc1ccc2ccccc2c1)NC(=O)c1cccc2ncccc12 (relative stereo) [Example 63, [2′R-(2′R*,3′S*)]-N-t-Butyl-2-[2′-hydroxy-3′-naphth-2-ylthiomethyl-4′-aza-5′-oxo-5′-(quinolin-5″-yl)pentyl] benzamide]
[3]
  IC50: 433 nM

## Cc1c(O)cccc1C(=O)N[C@@H](Cc1ccccc1)[C@H](O)Cc1ccccc1C(=O)NC(C)(C)C [Example 40, [2R′-(2R′*,3′S*)]-N-t-Butyl-2-[2′-hydroxy-3′-phenylmethyl-4′-aza-5′-oxo-5′-(2″methyl-3″-hydroxyphenyl)pentyl]benzamide]
[3]
  IC50: 21.1 nM

## Cc1ccsc1C(=O)N[C@@H](CSc1ccccc1)[C@H](O)CN1C[C@H]2CCCC[C@H]2C[C@H]1C(=O)NC(C)(C)C (relative stereo) [Example 90, [3S-(3R*, 4aR*, 8aR*, 2′S*, 3′S*)]-2-[2′-Hydroxy-3′-phenylthiomethyl-4′-aza-5′-oxo-5′-(3″-methyl-thieno-2″-yl)pentyl]-decahydroisoquinoline-3-N-t-butyl carboxamide]
[4]
  IC50: 48.4 nM

## Cc1ccccc1C(=O)N[C@H](CSc1ccc2ccccc2c1)[C@H](O)Cc1ccccc1C(=O)NC(C)(C)C (relative stereo) [Example 52, [2′R-(2′R*,3′S*)]-N-t-Butyl-2-[2′-hydroxy-3′-naphth-2-ylthiomethyl-4′-aza-5′-oxo-5′-(2″-methylphenyl)pentyl] benzamide]
[1]
  Fluorescence Assay IC50: 0.281 µg/mL

## CC(C)(C)NC(=O)c1ccccc1CC(O)C(CSc1ccc2ccccc2c1)NC(=O)c1cccc(Cl)c1Cl (stereo not drawn) [Example 54, [2′R-(2′R*,3′S*)]-N-t-Butyl-2-[2′-hydroxy-3′-naphth-2-ylthiomethyl-4′-aza-5′-oxo-5′-(2″,2″-dichlorophenyl)pentyl] benzamide]
[3]
  IC50: 129 nM

## CC(C)(C)NC(=O)c1ccccc1C[C@@H](O)[C@@H](CSc1ccc2ccccc2c1)NC(=O)c1cccc(O)c1Cl (relative stereo) [Example 56, [2′R-(2′R*,3′S*)]-N-t-Butyl-2-[2′-hydroxy-3′-naphth-2-ylthiomethyl-4′-aza-5′-oxo-5′-(2″-chloro-3″-hydroxyphenyl)pentyl] benzamide]
[1]
  Fluorescence Assay IC50: 0.094 µg/mL

## Cc1ccc(O)c(C)c1C(=O)NC(CSc1ccccc1)C(O)CN1CC2CCCCC2CC1C(=O)NC(C)(C)C (stereo not drawn) [Example 39, [3S-(3R*,4aR*,8aR*,2′S*,3′S*)]-2-[2′-Hydroxy-3′-phenylthiomethyl-4′-aza-5′-oxo-5′-[2″,6″-dimethyl-3″-hydroxyphenyl)pentyl] decahydroisoquinoline-3-N-t-butylcarboxamide]
[3]
  IC50: 9.11 nM
[4]
  IC50: 13.7 nM

## CC(C)(C)NC(=O)C1CC2CCCCC2CN1CC(O)C(Cc1ccccc1)NC(=O)c1cc(O)cc(O)c1Cl (stereo not drawn) [Example 8, [3S-(3R*,4aR*,8aR*,2′S*,3′R*)]-2-[2′-Hydroxy-3′-phenylmethyl-4′-aza-5′-oxo-5′-(2″-chloro-3″,5″-dihydroxyphenyl)pentyl] decahydroisoquinoline-3-N-t-butylcarboxamide]
[3]
  IC50: 28.7 nM
[4]
  IC50: 10.1 nM
